From patent publication US11214803B2, “Modulators of YAP1 expression” (Ionis Pharmaceuticals, Inc., priority 2019, dated 2022)
Strand notation (5' to 3'): a small letter for the sugar, then the base; units joined by * are phosphorothioate-linked, units joined directly phosphodiester-linked; [ ] holds rarer units or linkages, { } end groups; capitals alone tell only the bases. k = constrained ethyl (cEt); [5mC] = 5-methylcytosine; d = 2'-deoxy (DNA)

System: Yap1 mRNA
Assay: Dose-dependent inhibition of human Yap1 in A-431 cells (Example 7, 10,000 cells per well, RTS36584)
Assay type: cell-based
Details: free uptake
Method in brief: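 Yap1 mRNA was expressed as percent of untreated control after normalization to total RNA (RIBOGREEN), and IC50 was derived by log/linear linear regression. The read-out used primer-probe set RTS36584 roughly 48 hours after free-uptake dosing of oligonucleotides into A-431 cells (10,000 cells/well).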

[1] = Table 57, 15.6 nM, A-431 cells 10,000 cells per well, 48 hours
[2] = Table 57, 62.5 nM, A-431 cells 10,000 cells per well, 48 hours
[3] = Table 57, 4000.00 nM, A-431 cells 10,000 cells per well, 48 hours
[4] = Table 57, A-431 cells 10,000 cells per well
[5] = 15.6 nM, A-431 cells, 10,000 cells per well, approximately 48 hours
[6] = 62.5 nM, A-431 cells, 10,000 cells per well, approximately 48 hours
[7] = 4000.00 nM, A-431 cells, 10,000 cells per well, approximately 48 hours
[8] = A-431 cells, approximately 48 hours, linear regression on log/linear plot
[9] = Table 60, 15.6 nM, A-431 cells 10,000 cells per well, 48 hours
[10] = Table 60, 62.5 nM, A-431 cells 10,000 cells per well, 48 hours
[11] = Table 60, 4000.00 nM, A-431 cells 10,000 cells per well, 48 hours
[12] = Table 60, A-431 cells 10,000 cells per well
[13] = Table 58, 15.6 nM, A-431 cells 10,000 cells per well, 48 hours
[14] = Table 58, 62.5 nM, A-431 cells 10,000 cells per well, 48 hours
[15] = Table 58, 4000.00 nM, A-431 cells 10,000 cells per well, 48 hours
[16] = Table 58, A-431 cells 10,000 cells per well
[17] = Table 59, 15.6 nM, A-431 cells 10,000 cells per well, 48 hours
[18] = Table 59, 62.5 nM, A-431 cells 10,000 cells per well, 48 hours
[19] = Table 59, 4000.00 nM, A-431 cells 10,000 cells per well, 48 hours
[20] = Table 59, A-431 cells 10,000 cells per well

958506 (kG*k[5mC]*kA*dG*dA*dT*dA*dA*dT*d[5mC]*dG*dA*dG*kA*kT*kT; antisense) [compound 958506]
Yap1 mRNA, % UTC [1]: 80 % UTC
Yap1 mRNA, % UTC [2]: 55 % UTC
Yap1 mRNA, % UTC [3]: 10 % UTC
IC50 [4]: 0.1 µM

958594 (k[5mC]*kT*k[5mC]*dT*dT*dA*dG*dG*dT*d[5mC]*dT*d[5mC]*d[5mC]*kT*kT*k[5mC]; antisense) [compound 958594]
Yap1 mRNA, % UTC [5]: 91 % UTC
Yap1 mRNA, % UTC [6]: 70 % UTC
Yap1 mRNA, % UTC [7]: 20 % UTC
IC50 [8]: 0.2 µM

958588 (kG*kT*kG*dT*dA*d[5mC]*dT*dT*dA*dG*dG*dT*dG*kA*k[5mC]*kT; antisense) [compound 958588]
Yap1 mRNA, % UTC [9]: 93 % UTC
Yap1 mRNA, % UTC [10]: 73 % UTC
Yap1 mRNA, % UTC [11]: 27 % UTC
IC50 [12]: 0.2 µM

958600 (kG*kT*kA*dG*dA*dT*d[5mC]*dT*dA*dA*dG*dA*dA*kG*k[5mC]*k[5mC]; antisense) [compound 958600]
Yap1 mRNA, % UTC [5]: 69 % UTC
Yap1 mRNA, % UTC [6]: 44 % UTC
Yap1 mRNA, % UTC [7]: 14 % UTC
IC50 [8]: 0.05 µM

958472 (kT*k[5mC]*k[5mC]*dT*dT*dA*dG*dA*dT*d[5mC]*d[5mC]*dT*dT*k[5mC]*kA*k[5mC]; antisense) [compound 958472]
Yap1 mRNA, % UTC [13]: 92 % UTC
Yap1 mRNA, % UTC [14]: 63 % UTC
Yap1 mRNA, % UTC [15]: 23 % UTC
IC50 [16]: 0.2 µM

958535 (kG*kG*kG*dT*d[5mC]*dA*dA*dT*dT*dT*dT*d[5mC]*dA*kG*k[5mC]*kA; antisense) [compound 958535]
Yap1 mRNA, % UTC [5]: 98 % UTC
Yap1 mRNA, % UTC [6]: 64 % UTC
Yap1 mRNA, % UTC [7]: 19 % UTC
IC50 [8]: 0.2 µM

958786 (kT*kA*kT*dG*dT*d[5mC]*d[5mC]*dT*dA*d[5mC]*dT*dT*dT*k[5mC]*k[5mC]*k[5mC]; antisense) [compound 958786]
Yap1 mRNA, % UTC [1]: 106 % UTC
Yap1 mRNA, % UTC [2]: 84 % UTC
Yap1 mRNA, % UTC [3]: 25 % UTC
IC50 [4]: 0.3 µM

958752 (kG*kA*kA*dT*dT*dT*dT*dT*dA*dG*dT*d[5mC]*d[5mC]*kA*kG*kT; antisense) [compound 958752]
Yap1 mRNA, % UTC [13]: 102 % UTC
Yap1 mRNA, % UTC [14]: 66 % UTC
Yap1 mRNA, % UTC [15]: 9 % UTC
IC50 [16]: 0.1 µM

958767 (kA*k[5mC]*kG*dA*dA*dT*dA*dA*dG*dG*d[5mC]*dA*dT*kT*kA*kG; antisense) [compound 958767]
Yap1 mRNA, % UTC [17]: 101 % UTC
Yap1 mRNA, % UTC [18]: 57 % UTC
Yap1 mRNA, % UTC [19]: 10 % UTC
IC50 [20]: 0.1 µM

958505 (kG*kA*kT*dA*dA*dT*d[5mC]*dG*dA*dG*dA*dT*dT*kT*kA*kA; antisense) [compound 958505]
Yap1 mRNA, % UTC [5]: 81 % UTC
Yap1 mRNA, % UTC [6]: 72 % UTC
Yap1 mRNA, % UTC [7]: 21 % UTC
IC50 [8]: 0.2 µM

958623 (kT*kT*kG*dA*dT*dA*dT*dT*d[5mC]*d[5mC]*dG*d[5mC]*dA*kT*kT*kG; antisense) [compound 958623]
Yap1 mRNA, % UTC [17]: 100 % UTC
Yap1 mRNA, % UTC [18]: 62 % UTC
Yap1 mRNA, % UTC [19]: 10 % UTC
IC50 [20]: 0.1 µM

958551 (k[5mC]*kT*k[5mC]*d[5mC]*dT*dG*dT*dA*dG*dA*d[5mC]*dA*d[5mC]*kA*kT*kA; antisense) [compound 958551]
Yap1 mRNA, % UTC [1]: 95 % UTC
Yap1 mRNA, % UTC [2]: 73 % UTC
Yap1 mRNA, % UTC [3]: 14 % UTC
IC50 [4]: 0.2 µM

958599 (kT*kT*k[5mC]*dA*dA*dG*dA*dA*dT*dA*d[5mC]*d[5mC]*d[5mC]*kA*kG*kT; antisense) [compound 958599]
Yap1 mRNA, % UTC (Table 61, 15.6 nM, A-431 cells 10,000 cells per well, 48 hours): 100 % UTC
Yap1 mRNA, % UTC (Table 61, 62.5 nM, A-431 cells 10,000 cells per well, 48 hours): 74 % UTC
Yap1 mRNA, % UTC (Table 61, 4000.00 nM, A-431 cells 10,000 cells per well, 48 hours): 16 % UTC
IC50 (Table 61, A-431 cells 10,000 cells per well): 0.2 µM

958763 (k[5mC]*kA*k[5mC]*dA*dA*dT*dA*d[5mC]*dA*dA*dG*dA*dT*kG*k[5mC]*kA; antisense) [compound 958763]
Yap1 mRNA, % UTC [17]: 98 % UTC
Yap1 mRNA, % UTC [18]: 60 % UTC
Yap1 mRNA, % UTC [19]: 8 % UTC
IC50 [20]: 0.1 µM

958568 (kT*kA*kT*dG*dA*dG*dT*dG*dA*dT*d[5mC]*dA*dA*k[5mC]*k[5mC]*kT; antisense) [compound 958568]
Yap1 mRNA, % UTC [9]: 88 % UTC
Yap1 mRNA, % UTC [10]: 65 % UTC
Yap1 mRNA, % UTC [11]: 21 % UTC
IC50 [12]: 0.1 µM
